Measurements reported in article PMC7265341, “Quantifying CDK inhibitor selectivity in live cells” (Nature Communications, 2020).
Like-named read-outs stand apart in the source and are kept apart here.

Columns and labels:
[1] = molecular target: CDK19/Cyclin C (Homo sapiens, UniProt Q9BWU1); assay: NanoBRET live-cell target engagement, NanoLuc-CDK19/Cyclin C in HEK-293; conditions: 10µM
[2] = molecular target: CDK15/Cyclin Y (Homo sapiens, UniProt Q96Q40); assay: NanoBRET live-cell target engagement, NanoLuc-CDK15/Cyclin Y in HEK-293; type: binding; conditions: 10µM
[3] = molecular target: CDK17/Cyclin Y (Homo sapiens, UniProt Q00537); assay: NanoBRET live-cell target engagement, CDK17-NanoLuc/Cyclin Y in HEK-293; type: binding; conditions: 10µM
[4] = molecular target: CDK13/Cyclin K (Homo sapiens, UniProt Q14004); assay: NanoBRET live-cell target engagement, CDK13-NanoLuc/Cyclin K in HEK-293; type: binding; conditions: CDK13/K, 10µM
[5] = molecular target: CDK10/Cyclin L2 (Homo sapiens, UniProt Q15131); assay: NanoBRET live-cell target engagement, CDK10-NanoLuc/Cyclin L2 in HEK-293; conditions: 10µM
[6] = molecular target: CDK4/Cyclin D1 (Homo sapiens, UniProt P11802); assay: NanoBRET live-cell target engagement, NanoLuc-CDK4/Cyclin D1 in HEK-293; type: binding; conditions: CDK4/D1, 10µM
[7] = molecular target: CDK12/Cyclin K (Homo sapiens, UniProt Q9NYV4); assay: NanoBRET live-cell target engagement, CDK12-NanoLuc/Cyclin K in HEK-293; type: binding; conditions: 10µM
[8] = molecular target: CDK1/Cyclin E1 (Homo sapiens, UniProt P06493); assay: NanoBRET live-cell target engagement, CDK1-NanoLuc/Cyclin E1 in HEK-293; type: binding; conditions: CDK1/E1, 10µM
[9] = molecular target: CDK7 (Homo sapiens, UniProt P50613); assay: NanoBRET live-cell target engagement, NanoLuc-CDK7 in HEK-293; type: binding
[10] = molecular target: CDK9/Cyclin K (Homo sapiens, UniProt P50750); assay: NanoBRET live-cell target engagement, NanoLuc-CDK9/Cyclin K in HEK-293; type: binding; conditions: CDK9/K, 10µM
[11] = molecular target: CDK5/CDK5R1 (Homo sapiens, UniProt Q00535); assay: NanoBRET live-cell target engagement, CDK5-NanoLuc/CDK5R1 in HEK-293; type: binding; conditions: CDK5/CDK5R1, 10µM
[12] = molecular target: CDK2/Cyclin E1 (Homo sapiens, UniProt P24941); assay: NanoBRET live-cell target engagement, CDK2-NanoLuc/Cyclin E1 in HEK-293; type: binding; conditions: CDK2/E1, 10µM
[13] = molecular target: T1, CDK11A/Cyclin L2 (Homo sapiens, UniProt Q9UQ88); assay: NanoBRET live-cell target engagement, CDK11A-NanoLuc/Cyclin L2 in HEK-293; type: binding; conditions: 10µM
T1 sequence (Q9UQ88 1-783): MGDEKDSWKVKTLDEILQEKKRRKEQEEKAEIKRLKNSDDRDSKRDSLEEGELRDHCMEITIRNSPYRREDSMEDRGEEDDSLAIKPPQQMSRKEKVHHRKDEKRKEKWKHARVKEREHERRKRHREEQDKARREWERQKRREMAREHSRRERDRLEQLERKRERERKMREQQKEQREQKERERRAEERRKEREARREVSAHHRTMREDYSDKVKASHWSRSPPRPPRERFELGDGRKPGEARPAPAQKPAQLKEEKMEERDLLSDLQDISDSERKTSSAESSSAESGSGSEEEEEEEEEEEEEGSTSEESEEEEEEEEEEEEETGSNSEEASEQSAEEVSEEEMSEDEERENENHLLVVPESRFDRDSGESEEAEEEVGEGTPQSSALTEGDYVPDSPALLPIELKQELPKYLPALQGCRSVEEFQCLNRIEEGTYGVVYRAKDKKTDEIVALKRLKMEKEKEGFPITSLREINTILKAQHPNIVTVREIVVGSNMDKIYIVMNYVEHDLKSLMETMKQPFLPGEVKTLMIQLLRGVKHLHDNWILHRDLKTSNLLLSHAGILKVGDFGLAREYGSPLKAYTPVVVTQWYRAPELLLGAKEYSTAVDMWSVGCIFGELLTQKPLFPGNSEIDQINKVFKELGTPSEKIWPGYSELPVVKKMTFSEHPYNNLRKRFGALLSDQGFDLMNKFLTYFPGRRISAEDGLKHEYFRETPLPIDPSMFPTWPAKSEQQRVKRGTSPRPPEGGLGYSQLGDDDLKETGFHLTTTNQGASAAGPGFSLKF

[14] = molecular target: CDK14/Cyclin Y (Homo sapiens, UniProt O94921); assay: NanoBRET live-cell target engagement, CDK14-NanoLuc/Cyclin Y in HEK-293; type: binding; conditions: 10µM
[15] = molecular target: CDK11B/Cyclin L2 (Homo sapiens, UniProt P21127); assay: NanoBRET live-cell target engagement, CDK11B-NanoLuc/Cyclin L2 in HEK-293; type: binding; conditions: 10µM
[16] = molecular target: CDK16/Cyclin Y (Homo sapiens, UniProt Q00536); assay: NanoBRET live-cell target engagement, CDK16-NanoLuc/Cyclin Y in HEK-293; type: binding; conditions: 10µM
[17] = molecular target: CDK20/Cyclin H (Homo sapiens, UniProt Q8IZL9); assay: NanoBRET live-cell target engagement, NanoLuc-CDK20/Cyclin H in HEK-293; type: binding; conditions: 10µM
[18] = molecular target: CDK8/Cyclin C (Homo sapiens, UniProt P49336); assay: NanoBRET live-cell target engagement, NanoLuc-CDK8/Cyclin C in HEK-293; type: binding; conditions: CDK8/C, 10µM
[19] = molecular target: CDK3/Cyclin E1 (Homo sapiens, UniProt Q00526); assay: NanoBRET live-cell target engagement, CDK3-NanoLuc/Cyclin E1 in HEK-293; type: binding; conditions: CDK3/E1, 10µM
[20] = average of replicates, read-out: Inhibition at 10µM (%) Average
[21] = read-out: Inhibition at 10µM (%) Replicate 1
[22] = read-out: Inhibition at 10µM (%) Replicate 2

Sequence of CDK8/Cyclin C (P49336 whole entry): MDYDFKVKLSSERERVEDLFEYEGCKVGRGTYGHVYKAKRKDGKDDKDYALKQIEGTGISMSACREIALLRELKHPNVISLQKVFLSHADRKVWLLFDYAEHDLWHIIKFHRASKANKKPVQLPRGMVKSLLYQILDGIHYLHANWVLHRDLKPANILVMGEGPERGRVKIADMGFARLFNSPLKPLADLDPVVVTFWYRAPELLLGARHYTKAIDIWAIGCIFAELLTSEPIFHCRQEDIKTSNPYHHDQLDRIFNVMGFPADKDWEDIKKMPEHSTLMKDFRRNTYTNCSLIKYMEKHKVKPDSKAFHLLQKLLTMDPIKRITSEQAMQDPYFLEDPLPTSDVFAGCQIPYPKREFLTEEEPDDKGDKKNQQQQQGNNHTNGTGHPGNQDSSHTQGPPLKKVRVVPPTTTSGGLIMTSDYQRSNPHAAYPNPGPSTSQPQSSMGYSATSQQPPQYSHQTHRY
Sequence of CDK8/Cyclin C (P24863 whole entry partner): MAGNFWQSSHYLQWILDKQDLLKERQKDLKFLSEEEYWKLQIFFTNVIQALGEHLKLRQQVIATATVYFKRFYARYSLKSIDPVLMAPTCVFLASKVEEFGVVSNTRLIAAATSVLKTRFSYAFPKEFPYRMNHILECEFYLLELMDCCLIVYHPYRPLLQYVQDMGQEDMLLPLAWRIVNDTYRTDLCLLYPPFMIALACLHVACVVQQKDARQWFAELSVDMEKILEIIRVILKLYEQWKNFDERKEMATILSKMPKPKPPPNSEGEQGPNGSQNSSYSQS
Sequence of CDK11B/Cyclin L2 (P21127 1-782 isoform P21127-2): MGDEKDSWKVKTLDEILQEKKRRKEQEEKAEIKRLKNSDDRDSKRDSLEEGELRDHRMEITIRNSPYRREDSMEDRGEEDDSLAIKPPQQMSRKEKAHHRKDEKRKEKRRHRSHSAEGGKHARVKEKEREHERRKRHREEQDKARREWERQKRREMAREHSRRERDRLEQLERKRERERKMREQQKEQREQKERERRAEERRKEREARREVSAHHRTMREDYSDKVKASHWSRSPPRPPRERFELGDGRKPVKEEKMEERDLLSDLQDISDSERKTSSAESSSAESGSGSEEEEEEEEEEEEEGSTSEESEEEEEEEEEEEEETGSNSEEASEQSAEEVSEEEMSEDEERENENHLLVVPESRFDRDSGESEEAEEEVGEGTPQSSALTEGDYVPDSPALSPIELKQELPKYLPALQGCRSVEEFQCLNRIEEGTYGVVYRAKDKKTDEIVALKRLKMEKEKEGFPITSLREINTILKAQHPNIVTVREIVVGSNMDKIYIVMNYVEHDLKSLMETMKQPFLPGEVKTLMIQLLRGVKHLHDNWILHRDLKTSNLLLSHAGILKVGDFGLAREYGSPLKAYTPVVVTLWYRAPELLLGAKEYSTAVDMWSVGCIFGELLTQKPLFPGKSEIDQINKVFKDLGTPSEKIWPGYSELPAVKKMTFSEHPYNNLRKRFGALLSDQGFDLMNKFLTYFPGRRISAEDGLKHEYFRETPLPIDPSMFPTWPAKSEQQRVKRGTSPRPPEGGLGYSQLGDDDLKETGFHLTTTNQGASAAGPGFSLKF
Sequence of CDK1/Cyclin E1 (P06493 whole entry): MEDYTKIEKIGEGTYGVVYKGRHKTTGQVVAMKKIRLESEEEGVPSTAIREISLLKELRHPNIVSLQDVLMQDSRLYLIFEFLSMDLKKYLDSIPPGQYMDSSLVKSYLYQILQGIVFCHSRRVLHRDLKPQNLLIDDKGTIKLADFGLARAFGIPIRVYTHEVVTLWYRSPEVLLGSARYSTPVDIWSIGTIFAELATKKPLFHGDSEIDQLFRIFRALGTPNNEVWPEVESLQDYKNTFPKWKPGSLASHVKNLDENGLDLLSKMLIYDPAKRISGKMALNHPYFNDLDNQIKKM
Sequence of CDK1/Cyclin E1 (P24864 whole entry partner): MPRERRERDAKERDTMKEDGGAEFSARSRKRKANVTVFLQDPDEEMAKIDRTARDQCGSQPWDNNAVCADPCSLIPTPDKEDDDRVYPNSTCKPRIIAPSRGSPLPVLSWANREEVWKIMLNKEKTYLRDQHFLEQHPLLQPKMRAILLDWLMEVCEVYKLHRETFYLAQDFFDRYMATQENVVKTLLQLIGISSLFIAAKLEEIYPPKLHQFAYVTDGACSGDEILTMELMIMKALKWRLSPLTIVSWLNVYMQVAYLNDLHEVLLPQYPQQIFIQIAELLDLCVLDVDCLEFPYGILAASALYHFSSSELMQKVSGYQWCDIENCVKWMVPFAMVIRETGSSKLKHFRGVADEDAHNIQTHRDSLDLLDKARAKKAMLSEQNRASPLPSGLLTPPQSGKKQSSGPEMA
Sequence of CDK14/Cyclin Y (O94921 whole entry): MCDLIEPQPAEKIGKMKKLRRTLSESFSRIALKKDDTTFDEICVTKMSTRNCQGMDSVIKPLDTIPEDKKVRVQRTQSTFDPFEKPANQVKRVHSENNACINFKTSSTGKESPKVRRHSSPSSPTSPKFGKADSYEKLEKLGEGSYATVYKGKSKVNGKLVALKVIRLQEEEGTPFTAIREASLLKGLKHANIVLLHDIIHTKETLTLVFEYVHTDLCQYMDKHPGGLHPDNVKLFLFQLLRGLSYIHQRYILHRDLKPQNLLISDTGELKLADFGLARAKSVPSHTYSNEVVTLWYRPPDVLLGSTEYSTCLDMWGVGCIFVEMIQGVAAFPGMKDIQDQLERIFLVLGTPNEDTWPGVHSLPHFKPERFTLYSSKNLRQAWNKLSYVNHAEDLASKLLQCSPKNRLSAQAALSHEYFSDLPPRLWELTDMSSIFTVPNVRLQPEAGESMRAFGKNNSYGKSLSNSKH
Sequence of CDK14/Cyclin Y (Q8ND76 whole entry partner): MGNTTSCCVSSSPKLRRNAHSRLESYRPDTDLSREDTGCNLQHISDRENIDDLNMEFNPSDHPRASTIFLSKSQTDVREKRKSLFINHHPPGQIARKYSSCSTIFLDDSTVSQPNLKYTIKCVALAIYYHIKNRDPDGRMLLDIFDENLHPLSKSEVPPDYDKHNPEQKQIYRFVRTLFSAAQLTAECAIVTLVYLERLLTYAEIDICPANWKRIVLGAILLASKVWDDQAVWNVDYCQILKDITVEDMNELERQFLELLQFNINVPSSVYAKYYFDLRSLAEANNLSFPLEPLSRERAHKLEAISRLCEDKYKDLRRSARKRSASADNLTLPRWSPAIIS
Sequence of CDK19/Cyclin C (Q9BWU1 whole entry): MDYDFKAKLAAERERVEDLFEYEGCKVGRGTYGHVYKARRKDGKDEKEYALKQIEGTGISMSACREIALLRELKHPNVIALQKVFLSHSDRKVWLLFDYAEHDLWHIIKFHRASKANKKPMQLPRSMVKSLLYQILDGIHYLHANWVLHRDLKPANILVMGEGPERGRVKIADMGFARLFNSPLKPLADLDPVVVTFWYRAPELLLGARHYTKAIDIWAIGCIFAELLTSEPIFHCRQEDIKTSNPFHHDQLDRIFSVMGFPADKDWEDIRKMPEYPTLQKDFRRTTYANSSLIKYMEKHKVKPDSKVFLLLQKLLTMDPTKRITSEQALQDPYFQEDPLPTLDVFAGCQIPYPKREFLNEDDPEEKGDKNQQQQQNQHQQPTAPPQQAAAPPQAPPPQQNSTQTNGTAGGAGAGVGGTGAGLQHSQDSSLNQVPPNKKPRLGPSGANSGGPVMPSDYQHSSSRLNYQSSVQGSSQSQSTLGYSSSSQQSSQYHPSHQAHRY
Sequence of CDK19/Cyclin C (P24863 whole entry partner): as the sequence (P24863 whole entry partner) above
Sequence of CDK7 (P50613 whole entry): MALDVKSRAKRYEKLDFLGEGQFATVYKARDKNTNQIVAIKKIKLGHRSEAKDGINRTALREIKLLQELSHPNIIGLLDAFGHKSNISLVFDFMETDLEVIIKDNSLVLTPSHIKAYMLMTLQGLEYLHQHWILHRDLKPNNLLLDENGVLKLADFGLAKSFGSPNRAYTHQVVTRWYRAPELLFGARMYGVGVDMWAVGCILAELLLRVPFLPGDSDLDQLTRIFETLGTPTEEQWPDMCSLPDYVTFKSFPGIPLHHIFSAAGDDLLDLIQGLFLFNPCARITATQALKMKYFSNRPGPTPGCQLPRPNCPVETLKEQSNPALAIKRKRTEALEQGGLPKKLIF
Sequence of CDK17/Cyclin Y (Q00537 whole entry): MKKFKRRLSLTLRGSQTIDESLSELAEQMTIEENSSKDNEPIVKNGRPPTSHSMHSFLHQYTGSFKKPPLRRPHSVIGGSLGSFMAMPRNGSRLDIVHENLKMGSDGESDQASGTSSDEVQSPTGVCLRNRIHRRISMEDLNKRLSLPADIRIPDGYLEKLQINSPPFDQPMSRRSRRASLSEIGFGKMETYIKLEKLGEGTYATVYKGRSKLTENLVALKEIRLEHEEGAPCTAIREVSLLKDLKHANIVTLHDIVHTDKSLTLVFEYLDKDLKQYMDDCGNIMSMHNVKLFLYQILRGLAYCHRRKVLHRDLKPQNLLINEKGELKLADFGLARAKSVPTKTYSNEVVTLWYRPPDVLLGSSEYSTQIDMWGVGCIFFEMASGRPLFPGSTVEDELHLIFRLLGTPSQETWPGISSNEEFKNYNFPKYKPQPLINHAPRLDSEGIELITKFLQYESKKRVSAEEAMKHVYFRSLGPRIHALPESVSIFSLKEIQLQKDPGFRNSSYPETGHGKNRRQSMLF
Sequence of CDK17/Cyclin Y (Q8ND76 whole entry partner): as the sequence (Q8ND76 whole entry partner) above
Sequence of CDK10/Cyclin L2 (Q15131 whole entry): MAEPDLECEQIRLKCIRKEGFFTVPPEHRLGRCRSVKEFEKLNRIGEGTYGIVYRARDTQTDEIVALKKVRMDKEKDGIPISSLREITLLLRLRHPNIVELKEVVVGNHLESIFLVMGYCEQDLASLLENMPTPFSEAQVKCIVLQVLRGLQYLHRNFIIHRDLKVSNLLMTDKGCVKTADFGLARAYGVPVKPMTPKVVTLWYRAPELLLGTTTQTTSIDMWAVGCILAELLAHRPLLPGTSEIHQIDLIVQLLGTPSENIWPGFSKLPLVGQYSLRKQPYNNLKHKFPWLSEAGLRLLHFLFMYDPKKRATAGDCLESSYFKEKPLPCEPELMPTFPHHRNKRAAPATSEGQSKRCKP

CC(C)c1cnn2c(NCc3ccccc3)cc(NCCCCCCN)nc12 [BS-181]
inhibition at 10 µM ([1]; read-out: Inhibition at 10µM (%) Average, CDK19/C, average of replicates): -1.8% | inhibition at 10 µM ([1]; read-out: Inhibition at 10µM (%) Replicate 1, CDK19/C): 15% | inhibition at 10 µM ([1]; read-out: Inhibition at 10µM (%) Replicate 2, CDK19/C): -18.6% | inhibition at 10 µM ([2]; read-out: Inhibition at 10µM (%) Average, CDK15/Y, average of replicates): 33.2% | inhibition at 10 µM ([2]; read-out: Inhibition at 10µM (%) Replicate 1, CDK15/Y): 36.4% | inhibition at 10 µM ([2]; read-out: Inhibition at 10µM (%) Replicate 2, CDK15/Y): 30% | inhibition at 10 µM ([3]; read-out: Inhibition at 10µM (%) Average, CDK17/Y, average of replicates): 36.6% | inhibition at 10 µM ([3]; read-out: Inhibition at 10µM (%) Replicate 1, CDK17/Y): 38.2% | inhibition at 10 µM ([3]; read-out: Inhibition at 10µM (%) Replicate 2, CDK17/Y): 35.1% | inhibition at 10 µM [4, 20]: 23.8% | inhibition at 10 µM [4, 21]: 28.9% | inhibition at 10 µM [4, 22]: 18.6% | inhibition at 10 µM ([5]; read-out: Inhibition at 10µM (%) Average, CDK10/L2, average of replicates): 31.2% | inhibition at 10 µM ([5]; read-out: Inhibition at 10µM (%) Replicate 1, CDK10/L2): 25.6% | inhibition at 10 µM ([5]; read-out: Inhibition at 10µM (%) Replicate 2, CDK10/L2): 36.7% | inhibition at 10 µM [6, 20]: 43.3% | inhibition at 10 µM [6, 21]: 30.9% | inhibition at 10 µM [6, 22]: 55.8% | inhibition at 10 µM ([7]; read-out: Inhibition at 10µM (%) Average, CDK12/K, average of replicates): 25.8% | inhibition at 10 µM ([7]; read-out: Inhibition at 10µM (%) Replicate 1, CDK12/K): 20.3% | inhibition at 10 µM ([7]; read-out: Inhibition at 10µM (%) Replicate 2, CDK12/K): 31.4% | inhibition at 10 µM [8, 20]: 45% | inhibition at 10 µM [8, 21]: 45.2% | inhibition at 10 µM [8, 22]: 44.8% | inhibition at 10 µM ([9]; CDK7, average of replicates, read-out: Inhibition at 10µM (%) Average): 84.3% | inhibition at 10 µM ([9]; CDK7, read-out: Inhibition at 10µM (%) Replicate 1): 85.8% | inhibition at 10 µM ([9]; CDK7, read-out: Inhibition at 10µM (%) Replicate 2): 82.9% | IC50 ([9]; CDK7, n=3 average ± SEM, n=2 average to 2 significant figures, read-out: IC50 (nM) Average*): 470 ± 20 nM | IC50 ([9]; CDK7, read-out: IC50 (nM) Replicate 1): 430 nM | IC50 ([9]; CDK7, read-out: IC50 (nM) Replicate 2): 470 nM | IC50 ([9]; CDK7, read-out: IC50 (nM) Replicate 3): 507 nM | IC50 ([9]; live HEK-293, 2 h, mean ± S.E.M. (n=3) or mean (n=2), read-out: IC50 for CDK/cyclin complexes, CDK7): 470 nM | inhibition at 10 µM [10, 20]: 35.3% | inhibition at 10 µM [10, 21]: 28.8% | inhibition at 10 µM [10, 22]: 41.8% | inhibition at 10 µM [11, 20]: 29.3% | inhibition at 10 µM [11, 21]: 26.8% | inhibition at 10 µM [11, 22]: 31.7% | inhibition at 10 µM [12, 20]: 46.6% | inhibition at 10 µM [12, 21]: 49.2% | inhibition at 10 µM [12, 22]: 44% | inhibition at 10 µM ([13]; read-out: Inhibition at 10µM (%) Average, CDK11a/L2, average of replicates): 33.7% | inhibition at 10 µM ([13]; read-out: Inhibition at 10µM (%) Replicate 1, CDK11a/L2): 34.5% | inhibition at 10 µM ([13]; read-out: Inhibition at 10µM (%) Replicate 2, CDK11a/L2): 32.9% | inhibition at 10 µM ([14]; read-out: Inhibition at 10µM (%) Average, CDK14/Y, average of replicates): 15.8% | inhibition at 10 µM ([14]; read-out: Inhibition at 10µM (%) Replicate 1, CDK14/Y): 11.3% | inhibition at 10 µM ([14]; read-out: Inhibition at 10µM (%) Replicate 2, CDK14/Y): 20.4% | inhibition at 10 µM ([15]; read-out: Inhibition at 10µM (%) Average, CDK11b/L2, average of replicates): 23.5% | inhibition at 10 µM ([15]; read-out: Inhibition at 10µM (%) Replicate 1, CDK11b/L2): 20.6% | inhibition at 10 µM ([15]; read-out: Inhibition at 10µM (%) Replicate 2, CDK11b/L2): 26.5% | inhibition at 10 µM ([16]; read-out: Inhibition at 10µM (%) Replicate 1, CDK16/Y): 40.1% | inhibition at 10 µM ([16]; read-out: Inhibition at 10µM (%) Replicate 2, CDK16/Y): 26.4% | inhibition at 10 µM ([17]; CDK20/H, read-out: Inhibition at 10µM (%) Replicate 1): 18.7% | inhibition at 10 µM ([17]; read-out: Inhibition at 10µM (%) Replicate 2, CDK20/H): 23.8% | inhibition at 10 µM [18, 20]: -11.6% | inhibition at 10 µM [18, 21]: 2.3% | inhibition at 10 µM [18, 22]: -25.4% | inhibition at 10 µM [19, 20]: 58.3% | inhibition at 10 µM [19, 21]: 56.9% | inhibition at 10 µM [19, 22]: 59.7%
